pIC50: −log10 of the molar value. Like-named read-outs stand apart in the source and are kept apart here.
Columns and labels:
UMRC2 (kidney) = test: Cell growth inhibition assay (SRB), UMRC2; assay type: cell-based, human; details: Homo sapiens, SRB method, 96 hours incubation; for pIC50: UMRC2 (kidney), read-out: IC50, UMRC2; for IC50: UMRC2, read-out: Inhibition of cell growth (IC50, μM) by quinoxaline-piperazine compounds against human cancer cell lines: UMRC2
Procedure: (§1) OVCAR-3, MCF-7, PC3, HepG2, A549, HT-29 and MKN-45 were grown in RPMI1640 medium (Invitrogen, Carlsbad, Calif.) supplemented with 10% fetal bovine serum (‘FBS’), 1 mM sodium pyruvate, 10 mM HEPES and 100 U/ml penicillin and […] streptomycin (‘P/S’). MDA-MB-231, HCT116, UMRC2, Caki-1, PANC-1 and HEK293 cells were maintained in Dulbecco's modified Eagle's medium (‘DMEM’, Invitrogen) supplemented with 10% FBS, P/S, 10 mM HEPES and 2 mM L-glutamine. HUVEC was maintained in M199 supplemented with basic fibroblast growth factor (‘bFGF’) […] and FBS 20%. All cells were incubated at 37° C. under humidified 5% CO2.
(§2) The growth inhibition of the substituted quinoxalin-piperazine compounds against a variety of human tumor cells was evaluated. The relative importance of particular substituent groups on the compounds was also studied. The substituted piperazine derivative compounds, prepared as described above, were tested, along with DMSO as a control.
(§3) The growth inhibition assay of various compounds against human tumor cell lines was performed using the Sulforhodamine B (‘SRB’) method (Skehan et al., J. National Cancer Institute, 1990, 82, 1107-1112). […] Triplicate wells were used for each treatment. The cells were incubated with the various compounds for 96 hours at 37° C. in a humidified 5% CO2 atmosphere. After 96-hour incubation, cells were fixed with 10% trichloroacetic acid (‘TCA’), incubated for 1 hour at 4° C., and washed 3 times with tap water. Subsequently cells were stained with 0.4% sulforhodamine B in 1% acetic acid for 30 minutes, washed 4 times with 1% acetic acid, and air-dried again. After 5 minutes agitation in 10 mM Tris solution, the absorbance of each well was measured at 530 nm using Benchmark Plus Microplate reader (Bio-Rad Laboratories, Hercules, Calif.).
(§4) To translate the OD530 values into the number of live cells in each well, the OD530 values were compared to those on standard OD530-versus-cell number curves generated for each cell line. The percent survival was calculated using the formula: % Survival=live cell number[test]/live cell number[control]×100
(§5) The IC50 values were calculated by non-linear regression analysis.

MDA-MB-231 (breast) = test: Cell growth inhibition assay (SRB), MDA-MB-231; assay type: cell-based, human; details: Homo sapiens, SRB method, 96 hours incubation; for pIC50: MDA-MB-231 (breast), read-out: IC50, MDA-MB-231; for IC50: MDA-MB-231, read-out: Inhibition of cell growth (IC50, μM) by quinoxaline-piperazine compounds against human cancer cell lines: MDA-MB-231
Procedure: as §1, §2, §3, §4, §5

OVCAR-3 (ovary) = test: Cell growth inhibition assay (SRB), OVCAR-3; assay type: cell-based; details: Homo sapiens, SRB method, 96 hours incubation; for pIC50: OVCAR-3 (ovary), read-out: IC50, OVCAR-3; for IC50: OVCAR-3, OVCAR3, read-out: Inhibition of cell growth (IC50, μM) by quinoxaline-piperazine compounds against human cancer cell lines: OVCAR3
Procedure: as §1, §2, §3, §4, §5

MKN-45 (stomach) = test: Cell growth inhibition assay (SRB), MKN-45; assay type: cell-based; details: Homo sapiens, SRB method, 96 hours incubation; for pIC50: MKN-45 (stomach), read-out: IC50, MKN-45; for IC50: MKN-45, MKN45, read-out: Inhibition of cell growth (IC50, μM) by quinoxaline-piperazine compounds against human cancer cell lines: MKN45
Procedure: as §1, §2, §3, §4, §5

HCT116 (colon) = test: Cell growth inhibition assay (SRB), HCT116; assay type: cell-based; details: Homo sapiens, HCT-116, SRB method, 96 hours incubation; for pIC50: HCT116 (colon), read-out: IC50, HCT116; for IC50: HCT116, read-out: Inhibition of cell growth (IC50, μM) by quinoxaline-piperazine compounds against human cancer cell lines: HCT116
Procedure: as §1, §2, §3, §4, §5

A549 (lung) = test: Cell growth inhibition assay (SRB), A549; assay type: cell-based; details: Homo sapiens, SRB method, 96 hours incubation; for pIC50: A549 (lung), read-out: IC50, A549; for IC50: A549, read-out: Inhibition of cell growth (IC50, μM) by quinoxaline-piperazine compounds against human cancer cell lines: A549
Procedure: as §1, §2, §3, §4, §5

[1] = tested on: HEK293 (human embryonic kidney); test: Cell growth inhibition assay (SRB), HEK293; assay type: cell-based; details: SRB method, 96 hours incubation; for pIC50: HEK293 (human embryonic kidney), read-out: IC50, HEK293
Procedure: as §1, §2, §3, §4, §5

SK-OV-3 (ovary) = test: Cell growth inhibition assay (SRB), SK-OV-3; assay type: cell-based; details: Homo sapiens, SRB method, 96 hours incubation; for pIC50: SK-OV-3 (ovary), read-out: IC50, SK-OV-3
Procedure: as §1, §2, §3, §4, §5

HT-29 (colon) = test: Cell growth inhibition assay (SRB), HT-29; assay type: cell-based; details: Homo sapiens, SRB method, 96 hours incubation; for pIC50: HT-29 (colon), read-out: IC50, HT-29; for IC50: HT-29, HT29, read-out: Inhibition of cell growth (IC50, μM) by quinoxaline-piperazine compounds against human cancer cell lines: HT29
Procedure: as §1, §2, §3, §4, §5

[2] = tested on: MCF-7 (breast, hormone-dependent); test: Cell growth inhibition assay (SRB), MCF-7; assay type: cell-based; details: Homo sapiens, MCF7, SRB method, 96 hours incubation; for pIC50: MCF-7 (breast, hormone-dependent), read-out: IC50, MCF-7; for IC50: read-out: Inhibition of cell growth (IC50, μM) by quinoxaline-piperazine compounds against human cancer cell lines: MCF7
Procedure: as §1, §2, §3, §4, §5

Caki-1 (kidney) = test: Cell growth inhibition assay (SRB), Caki-1; assay type: cell-based; details: Homo sapiens, SRB method, 96 hours incubation; for pIC50: Caki-1 (kidney), read-out: IC50, Caki-1; for IC50: Caki-1, read-out: Inhibition of cell growth (IC50, μM) by quinoxaline-piperazine compounds against human cancer cell lines: Caki-1
Procedure: as §1, §2, §3, §4, §5

PANC-1 (pancreas) = test: Cell growth inhibition assay (SRB), PANC-1; assay type: cell-based, human; details: Homo sapiens, SRB method, 96 hours incubation; for pIC50: PANC-1 (pancreas), read-out: IC50, PANC-1; for IC50: PANC-1, read-out: Inhibition of cell growth (IC50, μM) by quinoxaline-piperazine compounds against human cancer cell lines: PANC-1
Procedure: as §1, §2, §3, §4, §5

[3] = tested on: Huvec (human umbilical vein endothelial cells); test: Cell growth inhibition assay (SRB), Huvec; assay type: cell-based; details: SRB method, 96 hours incubation; for pIC50: read-out: IC50, Huvec
Procedure: as §1, §2, §3, §4, §5

PC3 (prostate) = test: Cell growth inhibition assay (SRB), PC3; assay type: cell-based; details: Homo sapiens, SRB method, 96 hours incubation; for pIC50: PC3 (prostate), read-out: IC50, PC3; for IC50: PC-3, read-out: Inhibition of cell growth (IC50, μM) by quinoxaline-piperazine compounds against human cancer cell lines: PC-3
Procedure: as §1, §2, §3, §4, §5

HepG2 (liver) = test: Cell growth inhibition assay (SRB), HepG2; assay type: cell-based; details: Homo sapiens, SRB method, 96 hours incubation; for pIC50: HepG2 (liver), read-out: IC50, HepG2; for IC50: HepG2, read-out: Inhibition of cell growth (IC50, μM) by quinoxaline-piperazine compounds against human cancer cell lines: HepG2
Procedure: as §1, §2, §3, §4, §5

| SMILES | pIC50 (MDA-MB-231 (breast)) | pIC50 (OVCAR-3 (ovary)) | pIC50 (MKN-45 (stomach)) | pIC50 (HCT116 (colon)) | pIC50 (A549 (lung)) | pIC50 (SK-OV-3 (ovary)) | pIC50 (HT-29 (colon)) | pIC50 [2] | pIC50 (PANC-1 (pancreas)) | pIC50 (PC3 (prostate)) | pIC50 (HepG2 (liver)) | IC50 (MDA-MB-231 (breast)) | IC50 (A549 (lung)) | IC50 (HT-29 (colon)) | IC50 (PANC-1 (pancreas)) | pIC50 (UMRC2 (kidney)) | pIC50 [1] | pIC50 (Caki-1 (kidney)) | pIC50 [3] | IC50 (UMRC2 (kidney)) | also measured |
| --- | --- | --- | --- | --- | --- | --- | --- | --- | --- | --- | --- | --- | --- | --- | --- | --- | --- | --- | --- | --- | --- |
| COc1cc(OC)cc(N2CCN(C(=O)Nc3nc4ccc(Cl)cc4nc3OC)CC2)c1 [Compound 110, 1-[(6-Chloro-3-methoxyquinoxalin-2-yl)aminocarbonyl]-4-(3,5-dimethoxyphenyl)piperazine] | 6.74 | 6.89 | 6.70 | 6.64 | 6.62 |  | 6.60 | 6.68 | 6.55 | 6.57 | 6.68 |  |  |  |  | 6.68 |  | 6.74 |  |  |  |
| COc1nc2cc(Cl)ccc2nc1NC(=O)N1CCN(c2cc(C)cc(C)c2)CC1 [Compound 115, 1-[(6-Chloro-3-methoxyquinoxalin-2-yl)aminocarbonyl]-4-(3,5-dimethylphenyl)piperazine] | 6.89 | 6.51 | 6.37 | 6.35 | 6.23 | 6.30 | 6.34 | 6.35 | 6.77 | 6.21 | 6.39 |  |  |  |  | 6.96 | 6.30 | 6.51 | 6.28 |  |  |
| COc1cc(OC)cc(N2CCN(C(=O)Nc3nc4cc(F)ccc4nc3OC)CC2)c1 [Compound 5, 1-[(6-Fluoro-2-methoxyquinoxalin-3-yl)aminocarbonyl]-4-(3,5-dimethoxyphenyl)piperazine] |  |  |  |  |  |  |  |  |  |  |  | 0.012 µM | 0.021 µM | 0.021 µM | 0.021 µM |  |  |  |  | 0.013 µM | IC50 (OVCAR-3 (ovary)): 0.012 µM; IC50 (MKN-45 (stomach)): 0.02 µM; IC50 (HCT116 (colon)): 0.019 µM; IC50 [2]: 0.025 µM; IC50 (Caki-1 (kidney)): 0.011 µM; IC50 (PC3 (prostate)): 0.021 µM; IC50 (HepG2 (liver)): 0.019 µM |

Continued, in another order:

| pIC50 (MDA-MB-231 (breast)) | pIC50 (OVCAR-3 (ovary)) | pIC50 (MKN-45 (stomach)) | pIC50 (HCT116 (colon)) | pIC50 (A549 (lung)) | pIC50 (SK-OV-3 (ovary)) | pIC50 (HT-29 (colon)) | pIC50 [2] | pIC50 (PANC-1 (pancreas)) | pIC50 (PC3 (prostate)) | pIC50 (HepG2 (liver)) | IC50 (MDA-MB-231 (breast)) | IC50 (A549 (lung)) | IC50 (HT-29 (colon)) | IC50 (PANC-1 (pancreas)) | SMILES | pIC50 (UMRC2 (kidney)) | pIC50 [1] | pIC50 (Caki-1 (kidney)) | pIC50 [3] | IC50 (UMRC2 (kidney)) | also measured |
| --- | --- | --- | --- | --- | --- | --- | --- | --- | --- | --- | --- | --- | --- | --- | --- | --- | --- | --- | --- | --- | --- |
| 6.39 | 6.54 | 6.57 | 6.42 | 5.60 | 6.30 | 6.11 | 6.68 | 6.33 | 6.24 | 6.25 |  |  |  |  | COc1ccc2nc(NC(=O)N3CCN(c4cc(C)cc(C)c4)CC3)c(OC)nc2c1 [Compound 157, 1-[(3,6-Dimethoxyquinoxalin-2-yl)aminocarbonyl]-4-(3,5-dimethylphenyl)piperazine] | 6.57 | 6.28 | 6.52 | 6.82 |  |  |
|  |  |  |  |  |  |  |  |  |  |  | 0.032 µM | 0.055 µM | 0.048 µM | 0.07 µM | COc1cc(OC)cc(N2CCN(C(=O)Nc3nc4cc(C)ccc4nc3OC)CC2)c1 [Compound 47, 1-[(2-Methoxy-6-methylquinoxalin-3-yl)aminocarbonyl]-4-(3,5-dimethoxyphenyl)piperazine] |  |  |  |  | 0.039 µM | IC50 (OVCAR-3 (ovary)): 0.023 µM; IC50 (MKN-45 (stomach)): 0.04 µM; IC50 (HCT116 (colon)): 0.047 µM; IC50 [2]: 0.063 µM; IC50 (Caki-1 (kidney)): 0.029 µM; IC50 (PC3 (prostate)): 0.063 µM; IC50 (HepG2 (liver)): 0.045 µM |
|  |  |  |  |  |  |  |  |  |  |  | 0.27 µM | 0.25 µM | 0.05 µM | 1.31 µM | COc1cccc(N2CCN(C(=O)Nc3nc4cc(C)ccc4nc3OC)CC2)c1 [Compound 45, 1-[(2-Methoxy-6-methylquinoxalin-3-yl)aminocarbonyl]-4-(3-methoxyphenyl)piperazine] |  |  |  |  | 0.45 µM | IC50 ([1]; Homo sapiens, Hek293, read-out: Inhibition of cell growth (IC50, μM) by quinoxaline-piperazine compounds against human cancer cell lines: Hek293): 0.5 µM; IC50 (SK-OV-3 (ovary); SK-OV-3, read-out: Inhibition of cell growth (IC50, μM) by quinoxaline-piperazine compounds against human cancer cell lines: SK-OV-3): 1 µM; IC50 ([3]; read-out: Inhibition of cell growth (IC50, μM) by quinoxaline-piperazine compounds against human cancer cell lines: Huvec): 0.5 µM |
